For seven compounds, DNA peak exclusion and tRNA peak exclusion results are on record in ChEMBL document CHEMBL1134018, “Study of aminoglycoside-nucleic acid interactions by an HPLC method” (Bioorg Med Chem Lett, 2001).

Each structure is given as a SMILES string.

Test [1] deals with Nucleic Acid. Description: Percent of interaction with calf thymus DNA (activated type XV) at a concentration of 35 uM. The class given is functional. The settings on record: Bos taurus.
The subject of test [2] is Nucleic Acid. Description: Percent of interaction with wheat germ tRNA (type V) at a concentration of 35 uM. It is filed as functional. The settings on record: Triticum aestivum.

For the compound `NC[C@@H]1O[C@@H](O[C@H]2[C@H](O)[C@@H](O[C@H]3O[C@H](CO)[C@@H](O)[C@H](N)[C@H]3O)[C@H](N)C[C@@H]2N)[C@@H](O)[C@H](O)[C@H]1O`, in the test with Nucleic Acid [1], the DNA peak exclusion was found to be 67.3%. In the test with Nucleic Acid [2], this compound had a tRNA peak exclusion of 56%.
Taken in the same sequence, the figures for `CCN[C@@H]1C[C@H](N)[C@@H](O[C@H]2OC(CN)=CC[C@H]2N)[C@H](O)[C@H]1O[C@H]1OC[C@](C)(O)[C@H](NC)[C@H]1O` were 68.8% and 55.1%.
With `NC[C@@H]1O[C@H](O[C@H]2[C@@H](O)[C@H](O[C@@H]3[C@@H](O)[C@H](N)C[C@H](N)[C@H]3O[C@H]3O[C@H](CN)[C@@H](O)[C@H](O)[C@H]3N)O[C@@H]2CO)[C@H](N)[C@@H](O)[C@@H]1O`, the DNA peak exclusion in the test on Nucleic Acid [1] was 100%. Besides, the tRNA peak exclusion in the test with Nucleic Acid [2] turned out to be 77.8%.
Taken in the same sequence, the figures for `NC[C@H]1OC(O[C@H]2[C@H](O)C(O)[C@H](N)C[C@@H]2N)C(N)[C@@H](O)[C@@H]1O` (single isomer, unassigned) were 40% and 47.3%.
The matching figures for `CN[C@@H]1[C@H](O[C@H]2[C@H](O[C@H]3[C@H](O)[C@@H](O)[C@H](N=C(N)N)[C@@H](O)[C@@H]3N=C(N)N)O[C@@H](C)[C@]2(O)C=O)O[C@@H](CO)[C@H](O)[C@H]1O`: 44.3% and 52.5%.
As for `NC1C[C@@H](N)C(O)[C@@H](O)[C@@H]1O` (single isomer, unassigned), the tRNA peak exclusion with Nucleic Acid [2] came out at 30.3%.
With `NC(Cc1ccccc1)C(=O)NCC1O[C@@H](O[C@@H]2C(N)C[C@@H](N)[C@@H](O)C2O)[C@@H](N)C(O)[C@@H]1O` (stereo partly drawn), the DNA peak exclusion in the test on Nucleic Acid [1] is 100%. The tRNA peak exclusion in the test on Nucleic Acid [2] is 100%.
